Like-named read-outs stand apart in the source and are kept apart here.

This assay deals with human NK3 receptor (Homo sapiens (Human), UniProt P29371). As to the kind of experiment: [3H]SR142801 competition binding assay. Here is the method:
hNK3 receptor binding experiment were performed using [^3H]SR142801 (Catalog No. TRK1035, specific activity: 74.0 Ci/mmol, Amersham, GE Healthcare UK limited, Buckinghamshire, UK) and membrane isolated from HEK293 cells transiently expressing recombinant human NK3 receptor. After thawing, the membrane homogenates were centrifuged at 48,000×g for 10 min at 4° C., the pellets were resuspended in the 50 mM Tris-HCl, 4 mM MnCl2, 1 μM phosphoramidon, 0.1% BSA binding buffer at pH 7.4 to a final assay concentration of 5 μg protein/well. […] At the end of the incubation, membranes were filtered onto unitfilter (96-well white microplate with bonded GF/C filter preincubated 1 h in 0.3% PEI+0.3% BSA, Packard BioScience, Meriden, Conn.) with a Filtermate 196 harvester (Packard BioScience) and washed 4 times with ice-cold 50 mM Tris-HCl, pH 7.4 buffer. Nonspecific binding was measured in the presence of 10μM SB222200 for both radioligands. The radioactivity on the filter was counted (5 min) on a Packard Top-count microplate scintillation counter with quenching correction after addition of 45 μl of microscint 40 (Canberra Packard S.A., Ziirich, Switzerland) and shaking for 1 h. Inhibition curves were fitted according to the Hill equation: y=100/(1+(x/IC50), where nH=slope factor using Excel-fit 4 software (Microsoft). IC50 values were derived from the inhibition curve and the affinity constant (Ki) values were calculated using the Cheng-Prussoff equation Ki =IC50/(1+[L]/KD) where [L] is the concentration of radioligand and KD is its dissociation constant at the receptor, derived from the saturation isotherm. All experiments were performed in duplicate and the mean±standard error (SEM) of the individual Ki values was calculated.

Setting [1] is: membranes from HEK293 cells transiently expressing recombinant human NK3 receptor, [3H]SR142801, Ki from IC50 by Cheng-Prussoff, read-out: Ki (uM) hNK3.

Chain of human NK3 receptor (P29371 whole entry): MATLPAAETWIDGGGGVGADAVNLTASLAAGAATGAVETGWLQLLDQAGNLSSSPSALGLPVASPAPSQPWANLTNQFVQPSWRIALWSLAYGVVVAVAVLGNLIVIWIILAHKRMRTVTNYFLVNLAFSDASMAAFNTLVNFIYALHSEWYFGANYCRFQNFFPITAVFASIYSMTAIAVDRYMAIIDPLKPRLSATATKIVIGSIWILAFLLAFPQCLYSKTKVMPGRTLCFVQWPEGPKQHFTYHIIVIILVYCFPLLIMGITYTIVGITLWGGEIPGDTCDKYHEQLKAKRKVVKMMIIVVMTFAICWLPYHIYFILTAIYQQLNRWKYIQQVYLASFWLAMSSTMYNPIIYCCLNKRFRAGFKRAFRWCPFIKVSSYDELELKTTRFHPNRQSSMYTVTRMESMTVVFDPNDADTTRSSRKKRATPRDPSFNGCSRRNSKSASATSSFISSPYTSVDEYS

Consider `CC(=O)c1ccc(N2CCC(C(=O)N3C[C@H](c4ccc(Cl)cc4)[C@@](C)(N(C)C(=O)Oc4ccc(F)cc4)C3)CC2)nc1` (racemic) [Example 11, rac-[(3R,4S)-1-(5′-Acetyl-3,4,5,6-tetrahydro-2H-[1,2′]bipyridinyl-4-carbonyl)-4-(4-chloro-phenyl)-3-methyl-pyrrolidin-3-yl]-methyl-carbamic acid 4-fluoro-phenyl ester], for which the Ki (usually a measure of affinity in units of concentration, obtained from inhibition or displacement) under setting [1] stood at 0.0045 µM.

Turning to `CN(C(=O)Oc1ccc(F)cc1)[C@@]1(C)CN(C(=O)C2CCN(c3ccc(F)cn3)CC2)C[C@@H]1c1ccc(Cl)cc1` (racemic) [Example 12, rac-[(3R,4S)-4-(4-Chloro-phenyl)-1-(5′-fluoro-3,4,5,6-tetrahydro-2H-[1,2′]bipyridinyl-4-carbonyl)-3-methyl-pyrrolidin-3-yl]-methyl-carbamic acid 4-fluoro-phenyl ester], the affinity, expressed as Ki, was 0.0076 µM.

As to `CN(C(=O)Oc1ccc(F)cc1)[C@@]1(C)CN(C(=O)C2CCN(c3ccc(Cl)cn3)CC2)C[C@@H]1c1ccc(Cl)cc1` (racemic) [Example 13, rac-[(3R,4S)-4-(4-Chloro-phenyl)-1-(5′-chloro-3,4,5,6-tetrahydro-2H-[1,2′]bipyridinyl-4-carbonyl)-3-methyl-pyrrolidin-3-yl]-methyl-carbamic acid 4-fluoro-phenyl ester], under setting [1], the inhibition constant (Ki) worked out at 0.01 µM.

Take `CN(C(=O)Oc1ccc(F)cc1)[C@@]1(C)CN(C(=O)c2ccc(C#N)nc2)C[C@@H]1c1ccc(Cl)cc1` (racemic) [Example 14, rac-[(3R,4S)-4-(4-Chloro-phenyl)-1-(6-cyano-pyridine-3-carbonyl)-3-methyl-pyrrolidin-3-yl]-methyl-carbamic acid 4-fluoro-phenyl ester]: the inhibitory constant (Ki) under setting [1] came to 0.0774 µM.

Take `CN(C(=O)Oc1ccc(F)cc1)[C@@]1(C)CN(C(=O)C2CCN(c3ccc(C(F)(F)F)cn3)CC2)C[C@@H]1c1ccc(Cl)cc1` (racemic) [Example 15, rac-[(3R,4S)-4-(4-Chloro-phenyl)-3-methyl-1-(5′-trifluoromethyl-3,4,5,6-tetrahydro-2H-[1,2′]bipyridinyl-4-carbonyl)-pyrrolidin-3-yl]-methyl-carbamic acid 4-fluoro-phenyl ester]: under setting [1], the Ki is 0.0115 µM.

As to `CN(C(=O)Oc1ccc(F)cc1)[C@@]1(C)CN(C(=O)c2ccc(-c3ccc(F)cc3)cc2)C[C@@H]1c1ccc(Cl)cc1` (racemic) [Example 16, rac-[(3R,4S)-4-(4-Chloro-phenyl)-1-(4′-fluoro-biphenyl-4-carbonyl)-3-methyl-pyrrolidin-3-yl]-methyl-carbamic acid 4-fluoro-phenyl ester], the Ki amounted to 0.3 µM.

On to `Cc1nc(-c2ccc(C(=O)N3C[C@H](c4ccc(Cl)cc4)[C@@](C)(N(C)C(=O)Oc4ccc(F)cc4)C3)cc2)no1` (racemic) [Example 17, rac-{(3R,4S)-4-(4-Chloro-phenyl)-3-methyl-1-[4-(5-methyl-[1,2,4]oxadiazol-3-yl)-benzoyl]-pyrrolidin-3-yl}-methyl-carbamic acid 4-fluoro-phenyl ester], for which, under setting [1], the Ki is 0.0354 µM.

For the compound `CN(C(=O)Oc1ccc(F)cc1)[C@@]1(C)CN(C(=O)C2CCN(c3ccc(C#N)nc3)CC2)C[C@@H]1c1ccc(Cl)cc1` (racemic) [Example 18, rac-[(3R,4S)-4-(4-Chloro-phenyl)-1-(6′-cyano-3,4,5,6-tetrahydro-2H-[1,3′]bipyridinyl-4-carbonyl)-3-methyl-pyrrolidin-3-yl]-methyl-carbamic acid 4-fluoro-phenyl ester], the Ki under setting [1] was determined as 0.0028 µM.

As for `COc1ccc(N2CCC(C(=O)N3C[C@H](c4ccc(Cl)cc4)[C@@](C)(N(C)C(=O)Oc4ccc(F)cc4)C3)CC2)nn1` (racemic) [Example 19, rac-{(3R,4S)-4-(4-Chloro-phenyl)-1-[1-(6-methoxy-pyridazin-3-yl)-piperidine-4-carbonyl]-3-methyl-pyrrolidin-3-yl}-methyl-carbamic acid 4-fluoro-phenyl ester], the Ki under setting [1] came out at 0.0129 µM.

In the case of `CN(C(=O)Oc1ccc(F)cc1)[C@@]1(C)CN(C(=O)c2ccc(N3CCCCC3=O)cc2)C[C@@H]1c1ccc(Cl)cc1` (racemic) [Example 20, rac-{(3R,4S)-4-(4-Chloro-phenyl)-3-methyl-1-[4-(2-oxo-piperidin-1-yl)-benzoyl]-pyrrolidin-3-yl}-methyl-carbamic acid 4-fluoro-phenyl ester], the inhibition constant Ki under setting [1] was 0.276 µM.

`CN(C(=O)Oc1ccc(F)cc1)[C@@H]1CN(C(=O)C2CCN(C(=O)C3(C)CC3)CC2)C[C@@]1(C)c1ccc(Cl)cc1` (racemic) [Example 21, rac-{(3S,4R)-4-(4-Chloro-phenyl)-4-methyl-1-[1-(1-methyl-cyclopropanecarbonyl)-piperidine-4-carbonyl]-pyrrolidin-3-yl}-methyl-carbamic acid 4-fluoro-phenyl ester]: affinity was put at a Ki of 0.0319 µM.

On to `CN(C(=O)Oc1ccc(F)cc1)[C@@H]1CN(C(=O)C2CCN(c3ccc(C#N)cc3)CC2)C[C@@]1(C)c1ccc(Cl)cc1` (racemic) [Example 22, rac-{(3S,4R)-4-(4-Chloro-phenyl)-1-[1-(4-cyano-phenyl)-piperidine-4-carbonyl]-4-methyl-pyrrolidin-3-yl}-methyl-carbamic acid 4-fluoro-phenyl ester], for which the Ki was determined as 0.0105 µM.

In turn, `CN(C(=O)Oc1ccc(F)cc1)[C@@H]1CN(C(=O)C2CCN(c3ccc(F)cn3)CC2)C[C@@]1(C)c1ccc(Cl)cc1` (racemic) [Example 23, rac-[(3S,4R)-4-(4-Chloro-phenyl)-1-(5′-fluoro-3,4,5,6-tetrahydro-2H-[1,2′]bipyridinyl-4-carbonyl)-4-methyl-pyrrolidin-3-yl]-methyl-carbamic acid 4-fluoro-phenyl ester] came in with a Ki of 0.0435 µM.

On to `CC(C)C(=O)N1CCC(C(=O)N2C[C@@H](N(C)C(=O)Oc3ccc(F)cc3)[C@](C)(c3ccc(Cl)cc3)C2)CC1` (racemic) [Example 24, rac-[(3S,4R)-4-(4-Chloro-phenyl)-1-(1-isobutyryl-piperidine-4-carbonyl)-4-methyl-pyrrolidin-3-yl]-methyl-carbamic acid 4-fluoro-phenyl ester], for which, under setting [1], the Ki stood at 0.0392 µM.

As for `CN(C(=O)Oc1ccc(F)cc1)[C@@H]1CN(C(=O)c2ccc(C#N)cc2)C[C@@]1(C)c1ccc(Cl)cc1` (racemic) [Example 26, rac-[(3S,4R)-4-(4-Chloro-phenyl)-1-(4-cyano-benzoyl)-4-methyl-pyrrolidin-3-yl]-methyl-carbamic acid 4-fluoro-phenyl ester], the Ki under setting [1] turned out to be 0.629 µM.

In the case of `CC(=O)N1CCC(C(=O)N2C[C@@H](N(C)C(=O)Oc3ccc(F)cc3)[C@](C)(c3ccc(Cl)cc3)C2)CC1` (racemic) [Example 27, rac-[(3S,4R)-1-(1-Acetyl-piperidine-4-carbonyl)-4-(4-chloro-phenyl)-4-methyl-pyrrolidin-3-yl]-methyl-carbamic acid 4-fluoro-phenyl ester], the Ki under setting [1] was determined as 0.051 µM.

On to `CN(C(=O)Oc1ccc(F)cc1)[C@@H]1CN(C(=O)C2CCOCC2)C[C@@]1(C)c1ccc(Cl)cc1` (racemic) [Example 28, rac-[(3S,4R)-4-(4-Chloro-phenyl)-4-methyl-1-(tetrahydro-pyran-4-carbonyl)-pyrrolidin-3-yl]-methyl-carbamic acid 4-fluoro-phenyl ester], for which the Ki under setting [1] came to 0.348 µM.

With `Cc1ccc(N2CCC(C(=O)N3C[C@@H](N(C)C(=O)Oc4ccc(F)cc4)[C@](C)(c4ccc(Cl)cc4)C3)CC2)nc1` (racemic) [Example 29, rac-[(3S,4R)-4-(4-Chloro-phenyl)-4-methyl-1-(5′-methyl-3,4,5,6-tetrahydro-2H-[1,2′]bipyridinyl-4-carbonyl)-pyrrolidin-3-yl]-methyl-carbamic acid 4-fluoro-phenyl ester], the inhibition constant (Ki) under setting [1] was 0.0245 µM.

As to `CN(C(=O)Oc1ccc(F)cc1)[C@@H]1CN(C(=O)C2CCN(c3ccc(C#N)cn3)CC2)C[C@@]1(C)c1ccc(Cl)cc1` (racemic) [Example 30, rac-[(3S,4R)-4-(4-Chloro-phenyl)-1-(5′-cyano-3,4,5,6-tetrahydro-2H-[1,2′]bipyridinyl-4-carbonyl)-4-methyl-pyrrolidin-3-yl]-methyl-carbamic acid 4-fluoro-phenyl ester], under setting [1], the Ki was 0.0053 µM.

`CC(=O)c1ccc(N2CCC(C(=O)N3C[C@@H](N(C)C(=O)Oc4ccc(F)cc4)[C@](C)(c4ccc(Cl)cc4)C3)CC2)nc1` (racemic) [Example 31, rac-[(3S,4R)-1-(5′-Acetyl-3,4,5,6-tetrahydro-2H-[1,2′]bipyridinyl-4-carbonyl)-4-(4-chloro-phenyl)-4-methyl-pyrrolidin-3-yl]-methyl-carbamic acid 4-fluoro-phenyl ester] registered a Ki of 0.0081 µM.

With `CN(C(=O)Oc1ccc(F)cc1)[C@@H]1CN(C(=O)C2CCN(c3ccc(Cl)cn3)CC2)C[C@@]1(C)c1ccc(Cl)cc1` (racemic) [Example 32, rac-[(3S,4R)-4-(4-Chloro-phenyl)-1-(5′-chloro-3,4,5,6-tetrahydro-2H-[1,2′]bipyridinyl-4-carbonyl)-4-methyl-pyrrolidin-3-yl]-methyl-carbamic acid 4-fluoro-phenyl ester], the inhibition constant (Ki) under setting [1] is 0.0099 µM.

The values above are taken from patent US8618303B2, “Pyrrolidine derivatives” (Hoffmann-La Roche Inc., priority 2011, dated 2013).
